According to patent US20210113456A1, “PHARMACEUTICAL COMPOSITIONS OF RAMELTEON AND METHODS OF USE THEREOF” (MAXINASE LIFE SCIENCES LIMITED, priority 2017, published 2021):

Key:
[1] = target: MT1 receptors (Homo sapiens, UniProt P48039); settings: relative to parent drug; cited from earlier work
[2] = tested on: hepatic tumors; settings: high concentration; chronic toxicology study; cited from earlier work
[3] = target: T1, MT2 receptors (Homo sapiens, UniProt P49286); settings: relative to parent drug; cited from earlier work
T1 sequence (P49286 1-362): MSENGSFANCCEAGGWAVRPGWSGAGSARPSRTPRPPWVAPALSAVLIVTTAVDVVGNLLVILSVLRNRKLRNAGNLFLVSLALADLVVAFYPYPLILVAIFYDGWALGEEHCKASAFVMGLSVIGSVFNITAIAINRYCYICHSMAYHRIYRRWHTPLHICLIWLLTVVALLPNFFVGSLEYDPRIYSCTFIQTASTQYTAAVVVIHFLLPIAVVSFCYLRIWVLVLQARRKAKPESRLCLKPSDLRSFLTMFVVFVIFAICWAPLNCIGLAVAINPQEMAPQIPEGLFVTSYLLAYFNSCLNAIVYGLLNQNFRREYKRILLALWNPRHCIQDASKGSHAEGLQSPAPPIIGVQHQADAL

[4] = tested on: other CNS receptors associated with sedation (e.g., GABA, dopamine, opiate, serotonin); settings: cited from earlier work
[5] = tested on: Caco-2 monolayer; test: Permeability through Caco-2 monolayer; assay type: in vitro ADME; settings: in vitro
[6] = cited from earlier work
[7] = Pharmacokinetics of ramelteon after nasal and oral administration; design: species or system SD rats; settings: Sprague-Dawley (SD), rat, in vivo
Protocol: The objective was to study the pharmacokinetics of Ramelteon by determining the plasma concentrations after oral and intranasal administration. SD rats (n=3-4 for each dose) received an intranasal dose (0.1 mg/animal) of nasal solution composition (RNS-01, 2.5 mg/mL) which was prepared according to the EXAMPLE 1 of this invention, and an oral dose (0.1 mg/animal) of […] oral solution (ROS-01) which was prepared by directly dissolving ramelteon into saline solution to the final concentration of 0.1 mg/mL. Multiple blood samples were collected from tail vein until 6 hrs. Ramelteon concentration in rat plasma was determined using a validated LC/MS/MS method. The standard non-compartmental method was used to generate the pharmacokinetic parameters.

Sequence of MT1 receptors (P48039 whole entry): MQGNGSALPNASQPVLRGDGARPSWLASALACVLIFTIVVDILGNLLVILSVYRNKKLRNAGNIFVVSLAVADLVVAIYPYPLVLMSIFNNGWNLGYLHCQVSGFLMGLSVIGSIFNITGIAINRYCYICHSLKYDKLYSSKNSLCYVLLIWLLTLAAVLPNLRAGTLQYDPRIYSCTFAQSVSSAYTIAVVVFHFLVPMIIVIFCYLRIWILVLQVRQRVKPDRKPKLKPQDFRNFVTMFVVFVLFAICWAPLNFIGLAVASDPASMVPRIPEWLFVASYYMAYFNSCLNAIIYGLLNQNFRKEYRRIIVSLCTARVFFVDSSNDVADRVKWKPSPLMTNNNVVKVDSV

SMILES | binding affinity for MT1 receptor relative to ramelteon [1] | incidence of hepatic tumors [2] | binding affinity for MT2 receptor relative to ramelteon [3] | affinity for other CNS receptors [4] | permeability through Caco-2 monolayer [5] | increase of systemic exposure (AUC) after co-administration of fluvoxamine ([6]; fluvoxamine, a strong CYP1A2 inhibitor) | inter-subject variability ([6]; oral ramelteon) | improvement of bioavailability, intranasal versus oral solution of same dose [7]
CC(O)C(=O)NCCC1CCc2ccc3c(c21)CCO3 (centres unmarked) [M-II] | about one-tenth | increase the incidence of hepatic tumors | one-fifth | – | – | – | – | –
CCC(=O)NCC[C@@H]1CCc2ccc3c(c21)CCO3 [ramelteon] | – | – | – | no affinity | high permeability | approximately 190 fold | up to 100% | over 20 fold
